Source: the supplement of paper PMC11821682

Assays:
HL-60 = test: Cell Health Index (toxicity pseudo-probability over dose series) (index 0-1); higher = more cytotoxic / cell stress;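 further: HL-60 cells exposed 4 h at 37 °C to ten threefold dilutions spanning 5 nM to 100 µM, multiparametric flow cytometry features scored by machine-learning classification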
Danio rerio embryo = test: BMC10 any morphological effect or mortality at 120 hpf; higher = less toxic
Method: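 ZBEscreen: dechorionated Tropical 5D zebrafish embryos were exposed from 4 hpf in 96-well plates (1% DMSO, 28 °C). All compounds were first tested at 100 µM; hits were retested at 0.005-100 µM. Morphology and mortality were scored at 120 hpf and fitted as BMC10 (3-parameter log-logistic, extra risk). The embryonic photomotor response at 24 hpf and the larval photomotor response at 120 hpf are given as lowest effect levels (K-S test, p<0.01). NA = not significant up to 100 µM; NT = not tested.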

Row | Structure (SMILES) | Cell Health Index (HL-60) | BMC10 any morphological effect or mortality (Danio rerio embryo) [µM]
1 | COC(=O)N[C@H](C(=O)NNC[C@H](O)[C@H](Cc1ccccc1)NC(=O)[C@@H](NC(=O)OC)C(C)(C)C)C(C)(C)C [Des(benzylpyridyl) Atazanavir] | 0.207 | > 100
2 | O=c1[nH]cnc2c1ncn2[C@H]1CC[C@@H](CO)O1 [Didanosine] | 0.159 | > 100
3 | CCCCCCCCCCCCCCCCCCCCCCO [Docosanol] | 0.266 | > 100
4 | Cn1c(Cn2ccc(C(F)(F)F)c(Oc3cc(Cl)cc(C#N)c3)c2=O)n[nH]c1=O [Doravirine] | 0.198 | > 100
5 | CCO.C[C@H]1c2cccc(O)c2C(=O)C2=C(O)[C@]3(O)C(=O)C(C(N)=O)=C(O)[C@@H](N(C)C)C3[C@@H](O)C21.C[C@H]1c2cccc(O)c2C(=O)C2=C(O)[C@]3(O)C(=O)C(C(N)=O)=C(O)[C@@H](N(C)C)C3[C@@H](O)C21.Cl.Cl.O (stereo partly drawn) [Doxycycline] | 0.591 | > 100
6 | Cl.OC[C@H]1NC[C@H](O)[C@@H](O)[C@@H]1O [Duvoglustat] | 0.147 | > 100
7 | COc1cc2c(cc1OC)CN(CCc1ccc(NC(=O)c3cccc4c(=O)c5cccc(OC)c5[nH]c34)cc1)CC2 [Elacridar] | 0.592 | > 100
8 | COc1cc2c(cc1Cc1cccc(Cl)c1F)c(=O)c(C(=O)O)cn2[C@H](CO)C(C)C [Elvitegravir] | 0.339 | > 100
9 | Nc1nc(=O)n([C@@H]2CS(=O)[C@H](CO)O2)cc1F (stereo partly drawn) [Emtricitabine S-oxide] | 0.188 | > 100
10 | Nc1nc(=O)n([C@@H]2CS[C@H](CO)O2)cc1F [Emtricitabine] | 0.158 | > 100
11 | C=C1[C@H](CO)[C@@H](O)C[C@@H]1n1cnc2c(=O)nc(N)[nH]c21.O [Entecavir] | 0.178 | > 100
12 | CC(O)(P(=O)([O-])O)P(=O)([O-])O.[Na+].[Na+] [Etidronic acid] | 0.198 | > 100
13 | CC(=O)OCC(CCn1cnc2cnc(N)nc21)COC(C)=O [Famciclovir] | 0.254 | > 100
14 | NC(=O)c1nc(F)c[nH]c1=O [Favipiravir] | 0.248 | > 100
15 | O=c1[nH]c(=O)n([C@@H]2O[C@H](CO)[C@@H](O)[C@@H]2F)cc1I [Fialuridine] | 0.209 | > 100
16 | CC(C)CN(C[C@@H](OP(=O)([O-])[O-])[C@H](Cc1ccccc1)NC(=O)O[C@H]1CCOC1)S(=O)(=O)c1ccc(N)cc1.[Ca+2] [Fosamprenavir] | 0.242 | > 100
17 | O=C([O-])P(=O)([O-])[O-].[Na+].[Na+].[Na+] [Foscarnet] | 0.13 | > 100
18 | CO[C@@H]1[C@H](OC(=O)/C=C/C=C/C=C/C=C/C(=O)O)CC[C@]2(CO2)[C@H]1[C@@]1(C)O[C@@H]1CC=C(C)C [Fumagillin] | 0.187 | > 100
19 | CC(C)OC(=O)[C@H](C)N[P@](=O)(CO[C@H](C)Cn1cnc2c(N)ncnc21)Oc1ccccc1 [GS-7340] | 0.202 | > 100
20 | Nc1nc(=O)c2ncn(COC(CO)CO)c2[nH]1 [Ganciclovir] | 0.179 | > 100
21 | CCNCc1nc2c(N)nc3ccccc3c2n1CC(C)(C)O [Gardiquimod] | 0.172 | > 100
22 | Cl.Nc1ccn([C@@H]2O[C@H](CO)[C@@H](O)C2(F)F)c(=O)n1 [Gemcitabine] | 0.172 | > 100

Row | Structure (SMILES) | Cell Health Index (HL-60) | BMC10 any morphological effect or mortality (Danio rerio embryo) [µM]
23 | COC(=O)C1=CO[C@@H](O[C@@H]2O[C@H](CO)[C@@H](O)[C@H](O)[C@H]2O)[C@@H]2C(CO)=CC[C@H]12 [Geniposide] | 0.251 | > 100
24 | C=C[C@@H]1C2=CCOC(=O)C2=CO[C@H]1O[C@@H]1O[C@H](CO)[C@@H](O)[C@H](O)[C@H]1O [Gentiopicrin] | 0.225 | > 100
25 | O=C1O[C@@H]2[C@H]3OC(=O)c4cc(O)c(O)c(O)c4-c4c(cc(O)c(O)c4O)C(=O)OC[C@@H]2OC(OC(=O)c2cc(O)c(O)c(O)c2)[C@H]3OC(=O)c2cc(O)c(O)c3c2C2C1=CC(=O)C(O)(O3)C2(O)O (stereo partly drawn) [Geraniin] | 0.824 | > 100
26 | CC(C)=CCC[C@](C)(O[C@@H]1O[C@H](CO[C@@H]2O[C@H](CO)[C@@H](O)[C@H](O)[C@H]2O)[C@@H](O)[C@H](O)[C@H]1O)[C@H]1CC[C@]2(C)[C@@H]1[C@H](O)C[C@@H]1[C@@]3(C)CC[C@H](O[C@@H]4O[C@H](CO)[C@@H](O)[C@H](O)[C@H]4O[C@@H]4O[C@H](CO)[C@@H](O)[C@H](O)[C@H]4O)C(C)(C)[C@@H]3CC[C@]12C [Ginsenoside Rb1] | 0.145 | > 100
27 | O[C@H]1[C@@]2([H])[C@](CC[C@]2([H])[C@@](CC/C=C(C)/C)(C)O[C@@H]3O[C@H](CO[C@H]4[C@H](O)[C@@H](O)[C@@H](O)CO4)[C@@H](O)[C@H](O)[C@H]3O)(C)[C@]5(C)CC[C@]6([H])[C@@](CC[C@H](O[C@]7([H])O[C@H](CO)[C@@H](O)[C@H](O)[C@H]7O[C@@]8([H])[C@H](O)[C@@H](O)[C@H](O)[C@@H](CO)O8)C6(C)C)(C)[C@@]5([H])C1 [Ginsenoside Rb2] | 0.173 | > 100
28 | CC1(C)CC[C@]2(C(=O)O[C@@H]3O[C@H](CO)[C@@H](O)[C@H](O)[C@H]3O)CC[C@]3(C)C(=CC[C@@H]4[C@@]5(C)CC[C@H](O[C@@H]6O[C@H](C(=O)O)[C@@H](O)[C@H](O)[C@H]6O[C@@H]6O[C@H](CO)[C@@H](O)[C@H](O)[C@H]6O)C(C)(C)[C@@H]5CC[C@]43C)[C@@H]2C1 [Ginsenoside Ro] | 0.229 | > 100
29 | CC(C)(C)[C@@H]1NC(=O)O[C@@H]2CCC[C@H]2OC/C=C/C(F)(F)c2nc3ccccc3nc2O[C@@H]2C[C@@H](C(=O)N[C@]3(C(=O)NS(=O)(=O)C4(C)CC4)C[C@H]3C(F)F)N(C2)C1=O [Glecaprevir] | 0.369 | > 100
30 | COc1cc2c(=O)c(-c3ccc(O)cc3)coc2cc1O[C@@H]1O[C@H](CO)[C@@H](O)[C@H](O)[C@H]1O [Glycitin] | 0.158 | > 100
31 | CC1(C)[C@@H](O[C@H]2O[C@H](C(=O)O)[C@@H](O)[C@H](O)[C@H]2O[C@@H]2O[C@H](C(=O)O)[C@@H](O)[C@H](O)[C@H]2O)CC[C@]2(C)[C@H]3C(=O)C=C4[C@@H]5C[C@@](C)(C(=O)O)CC[C@]5(C)CC[C@@]4(C)[C@]3(C)CC[C@@H]12.N [Glycyrrhizin] | 0.295 | > 100
32 | C=C[C@H]1C[C@@]1(NC(=O)[C@@H]1C[C@@H]2CN1C(=O)[C@H](C(C)(C)C)NC(=O)O[C@@H]1C[C@H]1CCCCCc1nc3ccc(OC)cc3nc1O2)C(=O)NS(=O)(=O)C1CC1 [Grazoprevir] | 0.532 | > 100
33 | COc1ccc(C2CC(=O)c3c(O)cc(O)cc3O2)cc1O (stereo not drawn) [Hesperetin] | 0.258 | > 100
34 | COc1ccc([C@@H]2CC(=O)c3c(O)cc(O[C@@H]4O[C@H](CO[C@@H]5O[C@@H](C)[C@H](O)[C@@H](O)[C@H]5O)[C@@H](O)[C@H](O)[C@H]4O)cc3O2)cc1O [Hesperidin] | 0.204 | > 100
35 | CCN(CCO)CCCC(C)Nc1ccnc2cc(Cl)ccc12.O=S(=O)(O)O (stereo not drawn) [Hydroxychloroquine] | 0.211 | > 100
36 | NC(=O)NO [Hydroxyurea] | 0.161 | > 100
37 | O=c1[nH]c(=O)n([C@H]2C[C@H](O)[C@@H](CO)O2)cc1I [Idoxuridine] | 0.205 | > 100
38 | CC(C)Cn1cnc2c(N)nc3ccccc3c21 [Imiquimod] | 0.269 | > 100
39 | CC(C)(C)NC(=O)[C@@H]1CN(Cc2cccnc2)CCN1C[C@@H](O)C[C@@H](Cc1ccccc1)C(=O)N[C@H]1c2ccccc2C[C@H]1O.O=S(=O)(O)O [Indinavir] | 0.233 | > 100
40 | CC(=O)Nc1ccc(C(=O)O)cc1.CC(=O)Nc1ccc(C(=O)O)cc1.CC(=O)Nc1ccc(C(=O)O)cc1.CC(O)CN(C)C.CC(O)CN(C)C.CC(O)CN(C)C.O=c1nc[nH]c2c1ncn2[C@@H]1O[C@H](CO)[C@@H](O)[C@H]1O [Inosine] | 0.242 | > 100
41 | CC1=CC(=O)/C(=C/c2ccc(O)c(O)c2)O1 [Inotilone] | 0.76 | > 100
42 | CC1(C)[C@@H]2CC[C@@]1(C)[C@H](O)C2 [Isoborneol] | 0.173 | > 100
43 | COc1ccc(/C=C/C(=O)O)cc1O [Isoferulic acid] | 0.171 | > 100
44 | O=c1c(O[C@@H]2O[C@H](CO)[C@@H](O)[C@H](O)[C@H]2O)c(-c2ccc(O)c(O)c2)oc2cc(O)cc(O)c12 [Isoquercetin] | 0.31 | > 100
